What was measured:
A-type [Kv1.4] = A-type [Kv1.4] (Homo sapiens, UniProt P22459); settings: 300 μM; A-type [Kv1.4] selectively expressed in xenopus oocytes; cited from earlier work
A-type K+ ion channel = assay: Data assimilation of CA1 neuron current clamp recordings: predicted charge through A-type K+ channel before and after drug; format: cell-based, rodent
A-type [Kv4.2] = molecular target: T1, A-type [Kv4.2] (Homo sapiens, UniProt Q9NZV8); settings: 300 μM; A-type [Kv4.2] selectively expressed in xenopus oocytes; cited from earlier work
T1 sequence (Q9NZV8 1-630): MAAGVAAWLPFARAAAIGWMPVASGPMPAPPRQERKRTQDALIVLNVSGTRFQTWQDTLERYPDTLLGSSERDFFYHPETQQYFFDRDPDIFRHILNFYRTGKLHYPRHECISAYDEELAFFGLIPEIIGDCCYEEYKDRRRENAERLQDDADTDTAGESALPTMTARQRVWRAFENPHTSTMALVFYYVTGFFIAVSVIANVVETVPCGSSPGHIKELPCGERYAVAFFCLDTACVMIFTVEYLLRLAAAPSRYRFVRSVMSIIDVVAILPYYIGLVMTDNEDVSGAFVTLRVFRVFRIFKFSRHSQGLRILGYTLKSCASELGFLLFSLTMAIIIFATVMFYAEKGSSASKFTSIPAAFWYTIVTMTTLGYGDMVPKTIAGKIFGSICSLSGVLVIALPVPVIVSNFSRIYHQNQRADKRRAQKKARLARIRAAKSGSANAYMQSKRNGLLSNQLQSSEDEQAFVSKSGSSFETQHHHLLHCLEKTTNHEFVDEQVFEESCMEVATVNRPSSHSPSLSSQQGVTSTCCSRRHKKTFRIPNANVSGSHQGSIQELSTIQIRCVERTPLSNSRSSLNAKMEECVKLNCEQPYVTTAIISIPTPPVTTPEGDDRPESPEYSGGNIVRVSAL

BK [α + β3] = BK [α + β3] (Homo sapiens, UniProt Q12791); settings: 100 nM; BK [α + β3] selectively expressed in HEK293 cells; cited from earlier work
BK [α subunit only] = BK [α subunit only] (Homo sapiens, UniProt Q12791); settings: 100 nM; BK [α subunit only] selectively expressed in HEK293 cells; cited from earlier work
BK [α + β4] = BK [α + β4] (Homo sapiens, UniProt Q12791); settings: 100 nM; BK [α + β4] selectively expressed in HEK293 cells; cited from earlier work
BK [α + β1] = BK [α + β1] (Homo sapiens, UniProt Q12791); settings: 100 nM; BK [α + β1] selectively expressed in HEK293 cells; cited from earlier work
SK ion channel = assay: Data assimilation of CA1 neuron current clamp recordings: predicted charge through SK channel before and after drug; format: cell-based, rodent; settings: 100 nM IbTX, 2000 ms prediction window, FIG. 12A
NaT ion channel = assay: Data assimilation of CA1 neuron current clamp recordings: predicted charge through NaT channel before and after drug; format: cell-based, rodent; settings: 100 nM IbTX, 2000 ms prediction window, FIG. 12A
BK ion channel = molecular target: T2, BK ion channel (Homo sapiens, UniProt Q12791); assay: Data assimilation of CA1 neuron current clamp recordings: predicted charge through BK channel before and after drug; format: cell-based, rodent
T2 construct: endogenous in cells; host or cells: hippocampal CA1 neuron

K ion channel = assay: Data assimilation of CA1 neuron current clamp recordings: predicted charge through K channel before and after drug; format: cell-based, rodent; settings: 100 nM IbTX, 2000 ms prediction window, FIG. 12A
HCN1 = molecular target: T3, HCN1 (Homo sapiens, UniProt O60741); settings: 50 μM; HCN1 selectively expressed in HEK293 cells; cited from earlier work
T3 sequence (O60741 1-890): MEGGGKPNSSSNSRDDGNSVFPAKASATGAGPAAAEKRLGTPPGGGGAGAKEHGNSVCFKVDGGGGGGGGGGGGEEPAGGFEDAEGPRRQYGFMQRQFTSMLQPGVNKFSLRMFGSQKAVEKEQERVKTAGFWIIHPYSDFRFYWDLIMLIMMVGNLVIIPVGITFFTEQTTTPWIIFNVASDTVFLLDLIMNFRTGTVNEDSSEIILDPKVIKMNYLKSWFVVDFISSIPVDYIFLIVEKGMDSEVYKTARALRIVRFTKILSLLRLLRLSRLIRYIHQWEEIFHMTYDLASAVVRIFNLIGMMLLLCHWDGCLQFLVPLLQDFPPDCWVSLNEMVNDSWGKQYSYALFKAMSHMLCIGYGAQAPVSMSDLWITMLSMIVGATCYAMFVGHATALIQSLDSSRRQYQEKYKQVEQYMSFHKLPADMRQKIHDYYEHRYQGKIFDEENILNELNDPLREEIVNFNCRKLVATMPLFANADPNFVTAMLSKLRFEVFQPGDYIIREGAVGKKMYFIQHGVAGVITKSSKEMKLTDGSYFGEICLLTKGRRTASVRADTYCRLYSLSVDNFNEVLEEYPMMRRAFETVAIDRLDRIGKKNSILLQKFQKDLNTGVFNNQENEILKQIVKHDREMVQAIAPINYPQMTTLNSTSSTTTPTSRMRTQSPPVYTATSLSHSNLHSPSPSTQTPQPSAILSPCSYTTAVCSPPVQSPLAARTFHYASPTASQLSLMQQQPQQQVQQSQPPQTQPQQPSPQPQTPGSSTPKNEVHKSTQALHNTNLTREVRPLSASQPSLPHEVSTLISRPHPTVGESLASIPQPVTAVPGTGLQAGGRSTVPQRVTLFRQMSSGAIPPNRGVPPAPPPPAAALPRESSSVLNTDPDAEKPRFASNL

HCN2 = molecular target: T4, HCN2 (Homo sapiens, UniProt Q9UL51); settings: 50 μM; HCN2 selectively expressed in xenopus oocytes; cited from earlier work
T4 sequence (Q9UL51 1-889): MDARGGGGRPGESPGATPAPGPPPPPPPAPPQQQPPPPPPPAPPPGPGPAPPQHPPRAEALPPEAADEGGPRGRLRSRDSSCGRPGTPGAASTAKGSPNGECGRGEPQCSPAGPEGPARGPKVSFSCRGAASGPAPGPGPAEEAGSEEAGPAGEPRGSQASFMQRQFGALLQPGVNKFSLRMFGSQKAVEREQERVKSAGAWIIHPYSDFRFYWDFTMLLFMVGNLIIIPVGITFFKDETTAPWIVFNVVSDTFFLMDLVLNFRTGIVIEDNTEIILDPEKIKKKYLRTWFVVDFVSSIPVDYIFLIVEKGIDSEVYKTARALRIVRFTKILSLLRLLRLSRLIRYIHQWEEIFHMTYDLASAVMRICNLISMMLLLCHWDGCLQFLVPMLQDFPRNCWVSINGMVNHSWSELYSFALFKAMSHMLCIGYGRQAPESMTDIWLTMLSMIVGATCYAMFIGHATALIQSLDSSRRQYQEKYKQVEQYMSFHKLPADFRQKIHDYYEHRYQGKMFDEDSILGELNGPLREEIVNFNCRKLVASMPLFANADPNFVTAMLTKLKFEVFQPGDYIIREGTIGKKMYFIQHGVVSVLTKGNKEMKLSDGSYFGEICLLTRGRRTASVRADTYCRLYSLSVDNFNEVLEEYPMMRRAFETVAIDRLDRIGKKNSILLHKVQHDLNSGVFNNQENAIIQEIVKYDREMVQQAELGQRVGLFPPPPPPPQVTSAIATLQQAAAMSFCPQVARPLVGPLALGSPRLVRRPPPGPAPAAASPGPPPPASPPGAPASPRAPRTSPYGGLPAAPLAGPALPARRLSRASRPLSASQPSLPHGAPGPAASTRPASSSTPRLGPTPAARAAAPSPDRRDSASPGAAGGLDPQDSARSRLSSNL

T2 sequence (Q12791 whole entry): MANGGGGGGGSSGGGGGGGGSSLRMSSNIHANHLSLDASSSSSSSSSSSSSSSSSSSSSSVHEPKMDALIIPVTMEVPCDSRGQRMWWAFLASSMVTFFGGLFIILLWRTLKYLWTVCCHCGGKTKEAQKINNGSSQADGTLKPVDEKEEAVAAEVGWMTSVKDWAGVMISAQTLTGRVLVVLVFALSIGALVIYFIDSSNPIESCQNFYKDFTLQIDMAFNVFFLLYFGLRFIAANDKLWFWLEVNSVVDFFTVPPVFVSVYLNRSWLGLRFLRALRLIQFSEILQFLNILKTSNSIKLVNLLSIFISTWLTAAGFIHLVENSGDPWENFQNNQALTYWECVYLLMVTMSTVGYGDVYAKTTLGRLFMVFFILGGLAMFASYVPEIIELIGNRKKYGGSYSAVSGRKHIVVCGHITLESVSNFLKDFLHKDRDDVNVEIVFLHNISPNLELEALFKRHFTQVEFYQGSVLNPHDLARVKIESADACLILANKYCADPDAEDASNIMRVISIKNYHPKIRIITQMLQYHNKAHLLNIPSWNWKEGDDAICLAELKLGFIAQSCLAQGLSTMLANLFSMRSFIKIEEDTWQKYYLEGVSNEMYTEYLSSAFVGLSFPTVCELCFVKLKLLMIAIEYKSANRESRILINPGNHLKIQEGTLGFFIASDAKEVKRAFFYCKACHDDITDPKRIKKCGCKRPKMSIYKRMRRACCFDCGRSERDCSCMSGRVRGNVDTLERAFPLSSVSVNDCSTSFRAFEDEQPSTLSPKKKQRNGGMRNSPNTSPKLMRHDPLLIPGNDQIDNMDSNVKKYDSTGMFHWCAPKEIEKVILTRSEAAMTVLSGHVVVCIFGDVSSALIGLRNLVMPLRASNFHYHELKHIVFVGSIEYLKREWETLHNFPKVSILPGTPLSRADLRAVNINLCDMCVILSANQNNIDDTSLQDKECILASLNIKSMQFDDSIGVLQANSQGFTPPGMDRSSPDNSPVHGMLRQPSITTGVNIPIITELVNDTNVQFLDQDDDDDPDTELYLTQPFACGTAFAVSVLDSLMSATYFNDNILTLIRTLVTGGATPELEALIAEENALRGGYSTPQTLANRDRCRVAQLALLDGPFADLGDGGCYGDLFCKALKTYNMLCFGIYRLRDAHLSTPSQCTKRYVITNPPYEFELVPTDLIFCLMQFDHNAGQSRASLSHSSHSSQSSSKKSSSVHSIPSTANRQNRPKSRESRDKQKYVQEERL
BK [α + β1], sequence (Q12791 whole entry): as above
BK [α + β1], sequence (Q16558 whole entry partner): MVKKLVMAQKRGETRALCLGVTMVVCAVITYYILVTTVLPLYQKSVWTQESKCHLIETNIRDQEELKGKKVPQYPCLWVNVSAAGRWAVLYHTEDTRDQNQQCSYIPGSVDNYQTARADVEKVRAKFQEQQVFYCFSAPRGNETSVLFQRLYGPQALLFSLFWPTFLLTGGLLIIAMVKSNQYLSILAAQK
BK [α subunit only], sequence (Q12791 whole entry): as the sequence (Q12791 whole entry) above
BK [α + β4], sequence (Q12791 whole entry): as above
BK [α + β4], sequence (Q86W47 whole entry partner): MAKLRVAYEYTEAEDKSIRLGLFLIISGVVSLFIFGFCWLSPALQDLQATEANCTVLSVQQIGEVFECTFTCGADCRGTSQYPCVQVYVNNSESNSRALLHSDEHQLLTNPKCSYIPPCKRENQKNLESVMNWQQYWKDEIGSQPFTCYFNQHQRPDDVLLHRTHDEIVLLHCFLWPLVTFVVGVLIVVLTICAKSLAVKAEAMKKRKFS
BK [α + β3], sequence (Q12791 whole entry): as the sequence (Q12791 whole entry) above
BK [α + β3], sequence (Q9NPA1 whole entry partner): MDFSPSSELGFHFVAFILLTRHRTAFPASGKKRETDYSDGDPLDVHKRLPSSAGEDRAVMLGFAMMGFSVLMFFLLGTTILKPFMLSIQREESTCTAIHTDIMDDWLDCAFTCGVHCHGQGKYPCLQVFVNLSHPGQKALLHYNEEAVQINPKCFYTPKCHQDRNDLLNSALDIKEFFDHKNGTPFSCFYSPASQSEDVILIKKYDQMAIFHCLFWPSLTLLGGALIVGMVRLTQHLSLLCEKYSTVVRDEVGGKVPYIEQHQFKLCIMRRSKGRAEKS
A-type [Kv1.4], sequence (P22459 whole entry): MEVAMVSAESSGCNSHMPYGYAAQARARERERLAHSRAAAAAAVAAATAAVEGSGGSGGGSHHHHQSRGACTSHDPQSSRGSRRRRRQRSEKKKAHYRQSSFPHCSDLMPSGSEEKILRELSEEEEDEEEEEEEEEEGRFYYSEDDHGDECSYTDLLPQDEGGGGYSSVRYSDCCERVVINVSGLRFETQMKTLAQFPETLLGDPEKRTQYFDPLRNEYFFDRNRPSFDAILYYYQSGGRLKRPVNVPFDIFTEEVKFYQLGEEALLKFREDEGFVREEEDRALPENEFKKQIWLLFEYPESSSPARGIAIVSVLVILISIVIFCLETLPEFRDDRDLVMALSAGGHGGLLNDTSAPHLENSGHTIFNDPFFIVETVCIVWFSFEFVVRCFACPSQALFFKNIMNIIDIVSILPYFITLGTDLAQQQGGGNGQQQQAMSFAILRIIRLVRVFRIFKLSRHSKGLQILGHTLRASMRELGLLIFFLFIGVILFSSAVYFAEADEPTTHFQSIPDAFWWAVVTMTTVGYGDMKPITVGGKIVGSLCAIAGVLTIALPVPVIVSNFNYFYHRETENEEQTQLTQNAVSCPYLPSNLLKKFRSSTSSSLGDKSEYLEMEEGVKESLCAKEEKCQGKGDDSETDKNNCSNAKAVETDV

Nc1ccncc1 [4-AP, 4-aminopyridine]
EXPECTED DEGREE OF BLOCK AT APPLIED CONCENTRATION (A-type [Kv1.4]): ~25% | MEAN PREDICTED INHIBITION (Results) (A-type K+ ion channel; 300 μM applied, A-type K+ current, CA1 neuron, mean): 19.0% | MEDIAN PREDICTED INHIBITION (Results) (A-type K+ ion channel; 300 μM applied, A-type K+ current, CA1 neuron, median): 24.3% | EXPECTED DEGREE OF BLOCK AT APPLIED CONCENTRATION (A-type [Kv4.2]): ~13%

Iberiotoxin (QFTDVDCSVSKECWSVCKDLFGVDRGKCMGKKCRCYQ; UniProt P24663 1-37, looked up)
EXPECTED DEGREE OF BLOCK AT APPLIED CONCENTRATION (BK [α + β3]): 77% | EXPECTED DEGREE OF BLOCK AT APPLIED CONCENTRATION (BK [α subunit only]): 86% | EXPECTED DEGREE OF BLOCK AT APPLIED CONCENTRATION (BK [α + β4]): Insensitive | EXPECTED DEGREE OF BLOCK AT APPLIED CONCENTRATION (BK [α + β1]): 12% | Effect on total predicted charge (spike normalised), pre- vs post-drug (SK ion channel): does not have a visible effect | Effect on total predicted charge (spike normalised), pre- vs post-drug (A-type K+ ion channel; 100 nM IbTX, A-type K+ ion channel, 2000 ms prediction window, FIG. 12A): does not have a visible effect | Effect on total predicted charge (spike normalised), pre- vs post-drug (NaT ion channel): does not have a visible effect | Effect on total predicted charge (spike normalised), pre- vs post-drug (BK ion channel; 100 nM IbTX, BK ion channel, 2000 ms prediction window, FIG. 12A, 12D): does have a noticeable effect | MEAN PREDICTED INHIBITION (Results) (BK ion channel; 100 nM applied, BK current, CA1 neuron, mean): 14.8% | MEDIAN PREDICTED INHIBITION (Results) (BK ion channel; 100 nM applied, BK current, CA1 neuron, median): 12.1% | Effect on total predicted charge (spike normalised), pre- vs post-drug (K ion channel): does not have a visible effect

CCN(c1ccccc1)c1cc(=NC)n(C)c(C)n1.Cl [ZD 7288]
EXPECTED DEGREE OF BLOCK AT APPLIED CONCENTRATION (HCN1): ~63% | EXPECTED DEGREE OF BLOCK AT APPLIED CONCENTRATION (HCN2): ~80%

From US20250292865A1, “DETERMINING BIOLOGICAL PARAMETERS OF A CELL” (THE UNIVERSITY OF BATH, priority 2022, published 2025)
